According to ChEMBL document CHEMBL3608300, “Synthesis and anticancer activity of novel curcumin-quinolone hybrids” (Bioorg Med Chem Lett, 2015):
Activity calls are given as the source filed them. The calls are words filed in the database; no cut-off is given here.

How the values were obtained:
A549 [1] = experiment: Cytotoxicity against human A549 cells after 24 hrs by MTT assay; assay type: functional, cell-based; details: A549, 24 h
[2] = Cytotoxicity against human H460 cells after 24 hrs by MTT assay; assay type: functional, cell-based; details: NCI-H460, 24 h
SK-OV-3 [3] = experiment: Cytotoxicity against human SKOV3 cells after 24 hrs by MTT assay; assay type: functional, cell-based; details: SK-OV-3, 24 h
MCF7 [4] = experiment: Cytotoxicity against human MCF7 cells after 24 hrs by MTT assay; assay type: functional, cell-based; details: MCF7, 24 h
NCI-H460 [5] = experiment: Cytotoxicity against human H460 cells up to 30 uM after 24 hrs by MTT assay; assay type: functional, cell-based
SK-OV-3 [6] = experiment: Cytotoxicity against human SKOV3 cells up to 30 uM after 24 hrs by MTT assay; assay type: functional, cell-based
A549 [7] = experiment: Cytotoxicity against human A549 cells up to 30 uM after 24 hrs by MTT assay; assay type: functional, cell-based
MCF7 [8] = experiment: Cytotoxicity against human MCF7 cells up to 30 uM after 24 hrs by MTT assay; assay type: functional, cell-based
NCI-H460 [9] = experiment: Cytotoxicity against human H460 cells up to 10 uM after 24 hrs by MTT assay; assay type: functional, cell-based
MCF7 [10] = experiment: Cytotoxicity against human MCF7 cells up to 10 uM after 24 hrs by MTT assay; assay type: functional, cell-based
A549 [11] = experiment: Cytotoxicity against human A549 cells up to 10 uM after 24 hrs by MTT assay; assay type: functional, cell-based
SK-OV-3 [12] = experiment: Cytotoxicity against human SKOV3 cells up to 10 uM after 24 hrs by MTT assay; assay type: functional, cell-based
HCT-15 = experiment: Cell cycle arrest in human HCT15 cells assessed as accumulation at G2/M phase at 50 uM after 24 hrs (reference value: 17%); assay type: functional
HT-29 = experiment: Cell cycle arrest in human HT-29 cells assessed as accumulation at G2/M phase at 50 uM after 24 hrs (reference value: 12%); assay type: functional
SJRH30 = experiment: Induction of ROS production in human Rh30 cells at 10 uM after 1 to 2 hrs relative to control; assay type: functional
MCF7 [13] = experiment: Cell cycle arrest in human MCF7 cells assessed as accumulation at G2/M phase at 10 uM after 24 hrs (reference value: 9%); assay type: functional
SK-OV-3 [14] = experiment: Induction of apoptosis in human SKOV3 cells assessed as dead cells at IC50 after 24 hrs using Annexin V-PE/7AAD staining by flow cytometry (reference value: 0.7%); assay type: functional
SK-OV-3 [15] = experiment: Induction of apoptosis in human SKOV3 cells assessed as early apoptotic cells at IC50 after 24 hrs using Annexin V-PE/7AAD staining by flow cytometry (reference value: 6.8%); assay type: functional
SK-OV-3 [16] = experiment: Cell cycle arrest in human SKOV3 cells assessed as accumulation at G0/G1 phase at IC50 after 24 hrs using hypo propidium iodide staining by flow cytometry (reference value: 72.52%); assay type: functional
SK-OV-3 [17] = experiment: Induction of apoptosis in human SKOV3 cells assessed as apoptotic cells at IC50 after 24 hrs using Annexin V-PE/7AAD staining by flow cytometry (reference value: 9.0%); assay type: functional
[18] = Cytotoxicity against mouse NIH/3T3 cells assessed as cell viability at IC50 after 24 hrs by MTT assay; assay type: functional, NIH3T3
SK-OV-3 [19] = experiment: Induction of ROS production in human SKOV3 cells at IC50 after 3 hrs using DCFDA dye by flow cytometry relative to control; assay type: functional
SK-OV-3 [20] = experiment: Induction of cell morphological changes in human SKOV3 cells assessed as cell shrinkage and development of bubble like blebs on membranes at IC50 after 24 hrs by phase contrast microscope analysis; assay type: functional, cell-based
SK-OV-3 [21] = experiment: Induction of cell morphological changes in human SKOV3 cells assessed as cells with ruptured cell membranes at IC50 after 24 hrs by phase contrast microscope analysis; assay type: functional, cell-based
SK-OV-3 [22] = experiment: Cell cycle arrest in human SKOV3 cells assessed as accumulation at S phase at IC50 after 24 hrs using hypo propidium iodide staining by flow cytometry (reference value: 11.4%); assay type: functional
SK-OV-3 [23] = experiment: Cell cycle arrest in human SKOV3 cells assessed as accumulation at G2/M phase at IC50 after 24 hrs using hypo propidium iodide staining by flow cytometry (reference value: 15.43%); assay type: functional
SK-OV-3 [24] = experiment: Induction of apoptosis in human SKOV3 cells assessed as live cells at IC50 after 24 hrs using Annexin V-PE/7AAD staining by flow cytometry (reference value: 83.4%); assay type: functional

| Compound | IC50 (A549 [1]) | IC50 [2] | IC50 (SK-OV-3 [3]) | IC50 (MCF7 [4]) | other results |
| --- | --- | --- | --- | --- | --- |
| O=Cc1cc2ccccc2[nH]c1=O | > 100 µM | > 100 µM | > 100 µM | > 100 µM |  |
| C#CCn1c(=O)c(/C=C/C(=O)/C=C(O)/C=C/c2ccc(O)c(OC)c2)cc2cc(F)ccc21 | 40.5 µM | 44.3 µM | > 100 µM | 25 µM |  |
| O=C(/C=C(O)/C=C/c1cc2ccccc2[nH]c1=O)/C=C/c1cc2ccccc2[nH]c1=O | 69.1 µM | 63.3 µM | 34 µM | 31.5 µM |  |
| C#CCn1c(=O)c(C=O)cc2cc(F)ccc21 | > 100 µM | > 100 µM | > 100 µM | > 100 µM |  |
| C#CCn1c(=O)c(/C=C/C(=O)/C=C(O)/C=C/c2ccc(O)c(OC)c2)cc2cc(Cl)ccc21 |  |  |  |  | Activity (NCI-H460 [5]): inactive; Activity (SK-OV-3 [6]): inactive; Activity (A549 [7]): inactive; Activity (MCF7 [8]): inactive |
| C#CCn1c(=O)c(C=O)cc2cc(Cl)ccc21 | > 100 µM | > 100 µM | > 100 µM | > 100 µM |  |
| COc1cc(/C=C/C(O)=C/C(=O)/C=C/c2cc3ccccc3[nH]c2=O)ccc1O |  |  |  |  | Activity (NCI-H460 [9]): inactive; Activity (MCF7 [10]): inactive; Activity (A549 [11]): inactive; Activity (SK-OV-3 [12]): inactive |
| C=CCn1c(=O)c(C=O)cc2ccccc21 | > 100 µM | > 100 µM | > 100 µM | > 100 µM |  |
| C#CCn1c(=O)c(/C=C/C(=O)/C=C(O)/C=C/c2ccc(O)c(OC)c2)cc2cc(OC)ccc21 | 20.6 µM | 38.1 µM | 14 µM | > 100 µM |  |
| COc1cc(/C=C/C(=O)CC(=O)/C=C/c2ccc(O)c(OC)c2)ccc1O [CURCUMIN] | 60.2 µM | 82.5 µM | 43.6 µM | 32.2 µM | Activity (HCT-15): 32%; Activity (HT-29): 33%; fold change (FC) (SJRH30): 1.5; Activity (MCF7 [13]): 28% |
| C#CCn1c(=O)c(/C=C/C(=O)/C=C(O)/C=C/c2ccc(O)c(OC)c2)cc2cc(C)ccc21 | 23.9 µM | 21.8 µM | 12.8 µM | 36.2 µM | Activity (SK-OV-3 [14]): 7.3%; Activity (SK-OV-3 [15]): 2.5%; Activity (SK-OV-3 [16]): 54.43%; Activity (SK-OV-3 [17]): 62.5%; Activity [18]: 74.5%; Activity (SK-OV-3 [19]): 61.5%; Activity (SK-OV-3 [20]): Active; Activity (SK-OV-3 [21]): Active; Activity (SK-OV-3 [22]): 19.49%; Activity (SK-OV-3 [23]): 25%; Activity (SK-OV-3 [24]): 27.7% |
| C#CCn1c(=O)c(C=O)cc2ccccc21 | > 100 µM | > 100 µM | > 100 µM | > 100 µM |  |
| COc1cc(/C=C/C(O)=C/C(=O)/C=C/c2cc3ccccc3n(Cc3ccccc3)c2=O)ccc1O |  |  |  |  | Activity (NCI-H460 [9]): inactive; Activity (MCF7 [10]): inactive; Activity (A549 [11]): inactive; Activity (SK-OV-3 [12]): inactive |
| C#CCn1c(=O)c(C=O)cc2cc(OC)ccc21 | > 100 µM | > 100 µM | > 100 µM | > 100 µM |  |
| C#CCn1c(=O)c(/C=C/C(=O)/C=C(O)/C=C/c2ccc(O)c(OC)c2)cc2ccccc21 | 21.3 µM | 25.4 µM | 19 µM | 15 µM |  |
| O=Cc1cc2ccccc2n(Cc2ccccc2)c1=O | > 100 µM | > 100 µM | > 100 µM | 31.9 µM |  |
| C=CCn1c(=O)c(/C=C/C(=O)/C=C(O)/C=C/c2ccc(O)c(OC)c2)cc2ccccc21 | 31.3 µM |  | 26 µM | 23.5 µM | Activity (NCI-H460 [5]): inactive |
| C#CCn1c(=O)c(C=O)cc2cc(C)ccc21 | > 100 µM | > 100 µM | > 100 µM | > 100 µM |  |
